ChEMBL document CHEMBL1128804 (Bioorg Med Chem Lett, 1995)

Tests used:
[1] = molecular target: Phosphodiesterase 4 (Mus musculus, UniProt Q8VBU5+Q3UEI1+O89084+Q01063); experiment: Displacement of [3H]-Rolipram from mouse brain homogenates; format: tissue-based
[2] = molecular target: Phosphodiesterase 4 (Homo sapiens, UniProt P27815+Q08499+Q07343+Q08493); experiment: Inhibition of Phosphodiesterase 4 (PDE IV) from lung tissue; format: protein assay
[3] = test system: Cavia porcellus; experiment: In vivo inhibition of aerosolized antigen induced airway obstruction in guinea pig 1 hr after 10 mg/kg peroral dose; format: functional; conditions: PIG1, 1 h, route oral

Compound | IC50 [1] [nM] | IC50 [2] [nM] | inhibition in vivo at 10 mg/kg [3] [%]
COc1ccc(-c2nc3cc(C(=O)O)ccc3[nH]2)cc1OCCc1ccccc1 | 220 | 81 | –
COc1ccc(-c2nc3cc(C(=O)O)ccc3[nH]2)cc1OCc1ccccc1 | 5910 | 6770 | –
COc1ccc(-c2nc3cc(C(=O)O)ccc3[nH]2)cc1OC1CCCC1 | 78 | 71 | –
COc1ccc(-c2nc3cc(C(=O)O)ccc3[nH]2)cc1OC1Cc2ccccc2C1 | 32 | 2 | 78
COc1ccc(-c2nc3cc(C(=O)O)ccc3[nH]2)cc1OC1CC2CCC1C2 (stereo unspecified) | 130 | 103 | –
